The values that follow come from patent publication US7348328B2, “MCH antagonists for the treatment of obesity” (Schering Corporation, priority 2001, dated 2008).

SMILES strings stand for the structures.

For one test, the target named is T1, MCH receptor (Homo sapiens, UniProt Q99705).
T1 construct: expressed in transfected cells; host or cells: CHO cells (membranes)
T1 sequence (Q99705 whole entry): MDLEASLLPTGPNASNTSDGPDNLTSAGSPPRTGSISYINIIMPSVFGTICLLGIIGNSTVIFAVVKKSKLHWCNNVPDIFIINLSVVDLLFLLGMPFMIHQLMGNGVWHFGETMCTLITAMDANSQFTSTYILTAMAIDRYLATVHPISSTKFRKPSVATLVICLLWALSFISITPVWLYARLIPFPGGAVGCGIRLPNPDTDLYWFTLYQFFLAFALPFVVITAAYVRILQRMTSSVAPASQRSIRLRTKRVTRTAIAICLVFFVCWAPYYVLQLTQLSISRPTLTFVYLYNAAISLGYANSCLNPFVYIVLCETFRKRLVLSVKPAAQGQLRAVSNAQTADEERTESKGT
Description: MCH Receptor Binding Assay. The note with it: Binding Activity; membranes from CHO cells expressing the MCH receptor, [125I]-MCH; read-out: MCH Ki. On the procedure: MCH Receptor Binding Assay:
Membranes from CHO cells expressing the MCH receptor were prepared by lysing cells with 5 mM HEPES for 15 min at 4C. Cell lysates were centrifuged ([…], 15 min) and the pellet was resuspended in 5 mM HEPES. For each 96-well plate (Microlite, Dynex Technologies), 1 mg of cell membranes were incubated with 10 mg of wheat germ agglutinin SPA beads (Amersham) for 5 min at 4 C. in a volume of 10 ml of binding buffer (25 mM HEPES, 10 mM MGCl2, 10 mM NaCl, 5 mM MnCl2, 0.1% BSA). The membrane/bead mixture was centrifuged (1500×g, 3.5 min), the supernatant was aspirated, and the pellet was resuspended in 10 ml binding buffer. The centrifugation, aspiration and resuspension were then repeated. […] Nonspecific binding was determined by including 1 μM MCH in the binding reaction. The binding reaction was incubated at room temperature for 2 h. Plates were then analyzed in a TOPCOUNT microplate scintillation counter (Packard). Data was analyzed and Ki values were determined using GraphPad Prim.
The term Ki denotes a measure of affinity in units of concentration, obtained from inhibition or displacement. In the case of `CN(C)CCN(C(=O)Nc1ccc(F)c(Cl)c1)[C@@H]1CC[C@]2(c3cccc(C#N)c3)C[C@H]12` [Example 187], the inhibition constant Ki was found to be 14 nM.
Turning to `N#Cc1cccc([C@]23CC[C@@H](N(CCN4CCCC4)C(=O)Nc4cc(Cl)cc(Cl)c4)[C@H]2C3)c1` [Example 188], the inhibition constant (Ki) was 15 nM.
Take `N#Cc1cccc([C@]23CC[C@@H](N(CCN4CCCC4)C(=O)Nc4ccc(F)c(Cl)c4)[C@H]2C3)c1` [Example 189]: the Ki was determined as 18 nM.
`N#Cc1cccc([C@@]23CCC(N(CCN4CC[C@@H](O)C4)C(=O)Nc4ccc(F)c(Cl)c4)[C@@H]2C3)c1` (stereo partly shown) [Example 190]: the inhibitory constant (Ki) was 13 nM.
In the case of `N#Cc1cccc([C@]23CC[C@@H](N(CCN4CC[C@@H](O)C4)C(=O)Nc4ccc(F)c(Cl)c4)[C@H]2C3)c1` [Example 191], the Ki worked out at 22 nM.
Same read-out and setting: the value for `N#Cc1cccc([C@]23CC[C@@H](N(CCN4CC[C@@H](O)C4)C(=O)Nc4ccc(F)c(C(F)(F)F)c4)[C@H]2C3)c1` [Example 193] was 7.1 nM; that for `N#Cc1cccc([C@]23CC[C@@H](N(CCN4CCCCC4)C(=O)Nc4ccc(F)c(Cl)c4)[C@H]2C3)c1` [Example 194] was 4.1 nM; that for `CN(C)CCCCN(C(=O)Nc1ccc(F)c(Cl)c1)[C@@H]1CC[C@]2(c3cccc(C#N)c3)C[C@H]12` [Example 195] was 10 nM.
Regarding `N#Cc1cccc([C@]23CC[C@@H](N(CCCCN4CCCC4)C(=O)Nc4ccc(F)c(Cl)c4)[C@H]2C3)c1` [Example 196], the inhibition constant (Ki) was determined as 3.9 nM.
As to `O=C(Nc1ccc(F)c(C(F)(F)F)c1)N(CCN1CC[C@@H](O)C1)[C@@H]1CC[C@]2(c3cccc(Br)c3)C[C@H]12` [Example 197], the Ki is 79 nM.
Regarding `N#Cc1cccc([C@]23CC[C@@H](N(CCN4CC[C@@H](O)C4)C(=O)Nc4ccc(F)c(C(F)(F)F)c4)[C@H]2C3)c1` [Example 198], the Ki is 11 nM.
Consider `N#Cc1cccc([C@@]23CCC(N(CCN4CC[C@@H](O)C4)C(=O)Nc4ccc(F)c(C(F)(F)F)c4)[C@@H]2C3)c1` (stereo partly shown) [Example 199], for which the Ki was 23 nM.
The same measure, in the same setting: under `CN1CCN(CCN(C(=O)Nc2ccc(F)c(C(F)(F)F)c2)[C@@H]2CC[C@]3(c4cccc(C#N)c4)C[C@H]23)CC1` [Example 206] stands 30 nM; under `CCCN1CCN(CCN(C(=O)Nc2ccc(F)c(C(F)(F)F)c2)[C@@H]2CC[C@]3(c4cccc(C#N)c4)C[C@H]23)CC1` [Example 207], 22 nM.

Staying with this test, now noted: Table 1b, preferred compounds; read-out: MCH R1 Ki.
For the compound `CN(C)CCN(C(=O)Nc1ccc(Cl)c(Cl)c1)C1CC=C(c2cccc(C#N)c2)CC1` (stereo not shown), the Ki stood at 3 nM.
Turning to `N#Cc1cccc([C@@]23CC[C@@H](N(CCN4C[C@@H](O)[C@@H](O)C4)C(=O)Nc4ccc(F)c(Cl)c4)CC2C3)c1` (stereo partly shown), the inhibitory constant (Ki) was found to be 18 nM.
Same read-out and setting: the value for `N#Cc1cccc(C2=CCC(N(CCN3CCCC3)C(=O)Nc3ccc(F)c(C(F)(F)F)c3)CC2)c1` (stereo not shown) was 2.7 nM; that for `C[S+]([O-])c1cccc(C23CCC(N(CCCN4CCCC4)C(=O)Nc4ccc(Cl)c(Cl)c4)CC2C3)c1` (stereo not shown) was 20 nM.
As to `CC(C)N(CCN(C(=O)Nc1cc(Cl)nc(Cl)c1)[C@@H]1CC[C@@]2(c3cccc(C#N)c3)CC2C1)C(C)CO` (stereo partly shown), the inhibitory constant (Ki) worked out at 1.6 nM.
The same measure, in the same setting: the value for `CC(=O)Nc1cccc([C@@]23CC[C@@H](N(CCN4CCCC4)C(=O)Nc4ccc(F)c(C(F)(F)F)c4)CC2C3)c1` (stereo partly shown) was 4.6 nM; that for `CN1CCN(CCCN(C(=O)Nc2ccc(F)c(Cl)c2)[C@@H]2CC[C@]3(c4cccc(C#N)c4)C[C@@H]3C2)CC1` was 4.2 nM; that for `CC(=O)Nc1cccc([C@@]23CC[C@@H](N(CCCN4CCN(C)CC4)C(=O)Nc4ccc(F)c(Cl)c4)CC2C3)c1` (stereo partly shown) was 0.9 nM.
Take `N#Cc1cccc([C@@]23CC[C@@H](N(CCCN4CCC4)C(=O)Nc4ccc(F)c(F)c4)CC2C3)c1` (stereo partly shown): the Ki came out at 3.7 nM.
Take `N#Cc1ccc(C2=CCC(N(CCN3CCCC3)C(=O)Nc3ccc(F)c(Cl)c3)CC2)cc1` (stereo not shown): the inhibition constant (Ki) was 11 nM.
`O=C(Nc1ccc(F)c(F)c1)N(CCCN1CCCC1)[C@@H]1CC[C@@]2(c3cccc(-c4ncc[nH]4)c3)CC2C1` (stereo partly shown): the inhibition constant Ki turned out to be 5.4 nM.
Take `O=C(Nc1ccc(F)c(Cl)c1)N(CCN1CCCC1)C1CC=C(c2cccc(Cl)c2)CC1` (stereo not shown): the Ki amounted to 14 nM.
`O=C(Nc1ccc(F)c(C(F)(F)F)c1)N(CCN1CCCC1)C1CC=C(c2cccc(Cl)c2)CC1` (stereo not shown): the inhibitory constant (Ki) was found to be 12 nM.
Turning to `CN1CCN(CCCN(C(=O)Nc2ccc(F)c(C(F)(F)F)c2)[C@@H]2CC[C@@]3(c4ccc(C#N)cc4)CC23)CC1` (stereo partly shown), the inhibitory constant (Ki) is 3 nM.
On the same count and under the same terms, the value for `N#Cc1cccc([C@@]23CCC(N(CCN4CC[C@@H](O)C4)C(=O)Nc4cc(Cl)cc(Cl)c4)CC2C3)c1` (stereo partly shown) was 3.5 nM.
For `N#Cc1cccc([C@@]23CC[C@@H](N(CCCN4CC[C@@H](F)C4)C(=O)Nc4ccc(F)c(F)c4)CC2C3)c1` (stereo partly shown), the Ki was found to be 5 nM.
Turning to `CN1CCN(CCCCN(C(=O)Nc2ccc(F)c(Cl)c2)[C@@H]2CC[C@]3(c4cccc(C#N)c4)C[C@H]23)CC1`, the Ki is 2.2 nM.
As for `CN1CCN(CCCCN(C(=O)Nc2cc(Cl)nc(Cl)c2)C2CC[C@@]3(c4ccc(C#N)cc4)CC23)CC1` (stereo partly shown), the Ki came out at 2 nM.
For the compound `N#Cc1cccc([C@@]23CC[C@@H](N(CCCN4CC[C@@H](O)C4)C(=O)Nc4ccc(F)c(F)c4)CC2C3)c1` (stereo partly shown), the inhibition constant Ki stood at 1.2 nM.
For `N#Cc1cccc([C@@]23CC[C@@H](N(CCN4CC[C@@H](O)C4)C(=O)Nc4cc(Cl)cc(Cl)c4)CC2C3)c1` (stereo partly shown), the inhibition constant (Ki) was 13 nM.
The same measure, in the same setting: the value for `N#Cc1cccc([C@@]23CC[C@@H](N(CCCN4CC[C@@H](O)C4)C(=O)Nc4cc(F)cc(F)c4)CC2C3)c1` (stereo partly shown) was 1.8 nM.
The same measure, in the same setting: under `CS(=O)(=O)N1CCC(CN(C(=O)Nc2ccc(F)c(C(F)(F)F)c2)[C@@H]2CC[C@@]3(c4cccc(C#N)c4)CC3C2)CC1` (stereo partly shown) stands 26 nM; under `N#Cc1cccc(C23CCC(N(CCN4CCCC4)C(=O)Nc4cc(Cl)cc(Cl)c4)C2C3)c1` (stereo not shown), 15 nM.
In the case of `CN1CCN(CCCCN(C(=O)Nc2ccc(F)c(Cl)c2)C2CC[C@@]3(c4ccc(C#N)cc4)CC23)CC1` (stereo partly shown), the Ki is 2.9 nM.
Consider `N#Cc1cccc(C23CCC(N(CCN4CCCC4)C(=O)Nc4ccc(F)c(Cl)c4)C2C3)c1` (stereo not shown), for which the Ki was determined as 18 nM.
In the case of `CN1CCN(CCCN(C(=O)Nc2ccc(F)c(Cl)c2)[C@@H]2CC[C@]3(c4ccc(OC(F)(F)F)cc4)C[C@H]23)CC1`, the inhibitory constant (Ki) was 13 nM.
For `N#Cc1cccc([C@]23CCC(N(CCN4CC[C@@H](O)C4)C(=O)Nc4ccc(F)c(Cl)c4)[C@H]2C3)c1` (stereo partly shown), the inhibitory constant (Ki) came out at 13 nM.
`CC(C)N(CCF)CCN(C(=O)Nc1cc(Cl)nc(Cl)c1)[C@@H]1CC[C@@]2(c3cccc(C#N)c3)CC2C1` (stereo partly shown): the inhibition constant (Ki) was determined as 10.2 nM.
Turning to `N#Cc1cccc([C@@]23CC[C@@H](N(CCN4C[C@H]5C[C@H]5[C@H]4CO)C(=O)Nc4cc(Cl)nc(Cl)c4)CC2C3)c1` (stereo partly shown), the Ki is 3 nM.
Regarding `CC1(C)[C@H]2[C@@H](CO)N(CCCCN(C(=O)Nc3ccc(F)c(C(F)(F)F)c3)[C@@H]3CC[C@@]4(c5ccc(C#N)cc5)C[C@H]34)C[C@H]21`, the Ki amounted to 8 nM.
Still for that read-out and setting: under `CNS(=O)(=O)NC1CCN(CCCN(C(=O)Nc2ccc(F)c(Cl)c2)[C@@H]2CC[C@@]3(c4cccc(C#N)c4)CC3C2)C1` (stereo partly shown) stands 4.9 nM; under `CS(=O)(=O)N1CCC(CN(C(=O)Nc2ccc(F)c(F)c2)[C@@H]2CC[C@@]3(c4cccc(C#N)c4)CC3C2)CC1` (stereo partly shown), 5.4 nM.
Still for that read-out and setting: the value for `CC(C)N(CCN(C(=O)Nc1ccc(F)c(F)c1)C1CC[C@]2(c3cccc(C#N)c3)CC2C1)C(C)C` (stereo partly shown) was 2.8 nM; that for `N#Cc1cccc([C@@]23CC[C@@H](N(CC4CCN(S(=O)(=O)N5CCOCC5)CC4)C(=O)Nc4ccc(F)c(F)c4)CC2C3)c1` (stereo partly shown) was 45 nM; that for `CNCCN(C(=O)Nc1ccc(F)c(Cl)c1)[C@@H]1CC[C@@]2(c3cccc(C#N)c3)CC2C1` (stereo partly shown) was 9.1 nM.
Consider `CC(C)N(CCN(C(=O)Nc1ccsc1)[C@H]1CC[C@]2(c3cccc(C#N)c3)CC2C1)C(C)C` (stereo partly shown), for which the Ki came out at 11.2 nM.
On to `CC(C)N(CCN(C(=O)Nc1cccc(F)c1)[C@H]1CC[C@]2(c3cccc(C#N)c3)CC2C1)C(C)C` (stereo partly shown), for which the inhibition constant Ki was 2.1 nM.
For `CCOC(=O)NC1CCN(CCCN(C(=O)Nc2ccc(F)c(F)c2)[C@@H]2CC[C@@]3(c4cccc(C#N)c4)CC3C2)C1` (stereo partly shown), the inhibition constant (Ki) worked out at 5.9 nM.
The same measure, in the same setting: under `N#Cc1cccc([C@]23CC[C@H](N(CC4CCN(CC5CC5)CC4)C(=O)Nc4ccc(F)c(Cl)c4)CC2C3)c1` (stereo partly shown) stands 10 nM; under `CC(=O)NC1CCN(CCCN(C(=O)Nc2ccc(F)c(F)c2)[C@@H]2CC[C@@]3(c4cccc(C#N)c4)CC3C2)C1` (stereo partly shown), 5.8 nM.
In the case of `N#Cc1cccc([C@]23CC[C@H](N(CC4CCN(C5CCSC5)CC4)C(=O)Nc4ccc(F)c(Cl)c4)CC2C3)c1` (stereo partly shown), the Ki came out at 7.5 nM.
Turning to `CCNS(=O)(=O)NC1CCN(CCCN(C(=O)Nc2ccc(F)c(F)c2)[C@@H]2CC[C@@]3(c4cccc(C#N)c4)CC3C2)C1` (stereo partly shown), the Ki worked out at 7.1 nM.
In the case of `CN1CCN(CCCN(C(=O)Nc2ccc(F)c(Cl)c2)[C@@H]2CC[C@]3(c4cccc(Cl)c4)C[C@H]23)CC1`, the Ki was determined as 15 nM.
For `N#Cc1cccc([C@@]23CC[C@@H](N(CCCN4CCCC4)C(=O)Nc4ccc(F)c(F)c4)CC2C3)c1` (stereo partly shown), the Ki was found to be 1.1 nM.
`CSc1cccc([C@@]23CC[C@@H](N(CCCN4CCCC4)C(=O)Nc4ccc(F)c(F)c4)CC2C3)c1` (stereo partly shown): the inhibition constant Ki was determined as 22 nM.
For `CC(C)N(CCO)CCN(C(=O)Nc1cc(Cl)nc(Cl)c1)C1CC[C@@]2(c3cccc(C#N)c3)CC2C1` (stereo partly shown), the Ki was found to be 1.6 nM.
As for `CC(=O)Nc1cccc(C23CC[C@@H](N(CCN4CC[C@@H](O)C4)C(=O)Nc4ccc(F)c(C(F)(F)F)c4)CC2C3)c1` (stereo partly shown), the inhibitory constant (Ki) was found to be 4.8 nM.
